Experiment [1] concerns the target T1, human kappa opioid receptor (Homo sapiens, UniProt P41145).
T1 construct: expressed in transfected cells; host or cells: Chinese hamster ovary cells (CHO-hKOR), membranes
Nature of the experiment: biochemical. The following applies: for Emax: 1 h, read-out: Efficacy.

In experiment [2] the target is T1, human kappa opioid receptor. Nature of the experiment: biochemical. The experiment is classed as binding.

Where two headings read alike, the source gives them in different places.

T1 sequence (P41145 whole entry): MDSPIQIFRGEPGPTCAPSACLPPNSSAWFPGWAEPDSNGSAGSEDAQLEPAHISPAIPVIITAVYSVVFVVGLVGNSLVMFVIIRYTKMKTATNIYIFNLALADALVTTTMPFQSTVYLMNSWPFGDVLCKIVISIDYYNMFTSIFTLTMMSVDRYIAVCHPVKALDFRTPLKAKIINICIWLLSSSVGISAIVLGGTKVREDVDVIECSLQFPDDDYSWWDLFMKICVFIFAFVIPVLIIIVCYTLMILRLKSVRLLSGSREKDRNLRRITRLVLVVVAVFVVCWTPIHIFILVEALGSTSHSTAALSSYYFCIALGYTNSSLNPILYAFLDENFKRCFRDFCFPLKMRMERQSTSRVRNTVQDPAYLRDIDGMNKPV

As usually defined, the EC50 is the concentration needed to bring the measured effect to its halfway point. One may read the Ki as a measure of affinity in units of concentration, obtained from inhibition or displacement. Regarding `CC(=O)OC1CC(C(=O)NCC(=O)OCc2ccccc2)C2(C)CCC3C(=O)OC(c4ccoc4)CC3(C)C2C1=O` (stereo not shown) [Compound 100], in experiment [1], the EC50 amounted to 227 ± 15 nM and the Emax was determined as 105%. This compound yielded a Ki in experiment [2] of 470 ± 92 nM.

In the case of `CCC(=O)N(C)[C@@H]1C[C@@H](C(=O)OC)[C@]2(C)CC[C@H]3C(=O)O[C@H](c4ccoc4)C[C@]3(C)C2C1=O` (stereo partly drawn) [Compound 81, 2-epi-(N-methylpropionamide)-salvinorin], the EC50 in experiment [1] turned out to be 12.6 ± 0.9 nM. Moreover, the Ki in experiment [2] stood at 6.9 ± 1.1 nM.

As to `COC(=O)C1CC(N(C)C(C)=O)C(=O)C2C1(C)CCC1C(=O)OC(c3ccoc3)CC12C` (stereo not shown) [Compound 214a, 2-(N-methylacetamide)-salvinorin], in experiment [1], the EC50 stood at 2.4 ± 0.7 nM and the Emax was found to be 103%. The compound further came in with an inhibitory constant (Ki) in experiment [2] of 3.2 ± 0.1 nM.

Take `CCCC(=O)O[C@H]1C[C@@H](C(=O)OC)[C@]2(C)CC[C@H]3C(=O)O[C@H](c4ccoc4)C[C@]3(C)C2C1=O` (stereo partly shown) [Compound 3, 2-butyryl-salvinorin B]: in experiment [1], the EC50 came out at 9.9 ± 0.6 nM and the Emax amounted to 97%. For the same compound, the Ki in experiment [2] worked out at 4.9 ± 0.6 nM.

In the case of `COC(=O)O[C@H]1C[C@@H](C(=O)OC)[C@]2(C)CC[C@H]3C(=O)O[C@H](c4ccoc4)C[C@]3(C)C2C1=O` (stereo partly shown) [Compound 29], the EC50 in experiment [1] was more than 1720 nM. In experiment [2], the Ki was more than 91 nM.

With `COC(=O)[C@@H]1C[C@H](OC(N)=O)C(=O)C2[C@@]1(C)CC[C@H]1C(=O)O[C@H](c3ccoc3)C[C@]21C` (stereo partly shown) [Compound 9, 2-(O-formamide)-salvinorin B], in experiment [1], the EC50 amounted to 6.2 ± 1.4 nM and the Emax came to 99%. In addition, the Ki in experiment [2] amounted to 3.2 ± 0.2 nM.

For the compound `COC(=O)C1CC(NC(C)=O)C(=O)C2C1(C)CCC1C(=O)OC(c3ccoc3)CC12C` (stereo not drawn) [Compound 212b, 2-epi-(acetamide)-salvinorin], the EC50 in experiment [1] (read-out: EC50) was 339 ± 33 nM. Moreover, the Ki in experiment [2] (read-out: Ki) came to 332 ± 41 nM.

Take `COC(=O)[C@@H]1C[C@H](OC)C(=O)C2[C@@]1(C)CC[C@H]1C(=O)O[C@H](c3ccoc3)C[C@]21C` (stereo partly shown) [Compound 4, 2-methoxy-salvinorin B]: in experiment [1], the EC50 stood at 389 ± 76 nM and the Emax was found to be 98%. The compound further came in with a Ki in experiment [2] of 220 ± 12 nM.

Regarding `COC(=O)C1CC(NC(C)C)C(=O)C2C1(C)CCC1C(=O)OC(c3ccoc3)CC12C` (stereo not shown) [Compound 210a, 2-(N-isopropyl)-salvinorin], in experiment [1], it took 18.9 ± 0.6 nM to reach a half-maximal effect (EC50) and the Emax was 99%. Moreover, the affinity in experiment [2] corresponds to a Ki of 17.6 ± 3.1 nM.

Compound `CCOC(=O)O[C@H]1C[C@@H](C(=O)OC)[C@]2(C)CC[C@H]3C(=O)O[C@H](c4ccoc4)C[C@]3(C)C2C1=O` (stereo partly shown) [Compound 30] registered an EC50 in experiment [1] of more than 1120 nM. The Ki in experiment [2] was more than 78.9 nM.

Turning to `C=CCO[C@H]1C[C@@H](C(=O)OC)[C@]2(C)CC[C@H]3C(=O)O[C@H](c4ccoc4)C[C@]3(C)C2C1=O` (stereo partly shown) [Compound 14, 2-allyloxy-salvinorin B], in experiment [1], the response was half-maximal at 145 ± 33 nM (EC50) and the Emax is 106%. The Ki in experiment [2] is 60.1 ± 5.1 nM.

For the compound `CC(=O)O[C@H]1C[C@@H](C(=O)O)[C@]2(C)CC[C@@H]3C(=O)O[C@H](c4ccoc4)C[C@]3(C)C2C1=O` (stereo partly drawn) [Compound 31, epi-demethyl Salvinorin], in experiment [1], a half-maximal effect (EC50) was put at 84 nM and the Emax was determined as 93 ± 5%. In experiment [2], this compound returned a Ki of 17.3 nM.

Regarding `COC(=O)[C@@H]1C[C@H](OC(=O)[C@H](C)N(C)C)C(=O)C2[C@@]1(C)CC[C@H]1C(=O)O[C@H](c3ccoc3)C[C@]21C` (stereo partly shown) [Compound 92], in experiment [1], the EC50 is 539 ± 11 nM and the Emax is 90%. Further, the inhibition constant (Ki) in experiment [2] was 197 ± 19 nM.

In experiment [2], `CC(=O)OC1CC(C(=O)NC(Cc2cnc[nH]2)C(=O)OCc2ccccc2)C2(C)CCC3C(=O)OC(c4ccoc4)CC3(C)C2C1=O` (stereo not shown) [Compound 105] came in with a Ki of more than 10000 nM.

Regarding `CNC(=O)[C@@H]1C[C@H](OC(C)=O)C(=O)[C@H]2[C@@]1(C)CC[C@H]1C(=O)O[C@H](c3ccoc3)C[C@]21C` [Compound 219, C(4)-N-methylamide salvinorin A], the Ki in experiment [2] (read-out: Ki) is more than 1000 nM.

The values above are taken from patent US20070213394A1 (priority 2004, published 2007).
